According to patent publication US20110053923A1, “CHEMICAL COMPOUNDS 610” (AstraZeneca, priority 2008, published 2011):

Legend:
ATR = target: T1, ATR (Homo sapiens, UniProt Q13535); assay: Enzyme Assay - ATR (Test (a)); format: biochemical; conditions: ATR immunoprecipitated from HeLa nuclear extract; 3 μM ATP; average of individual tests; read-out: ATR average IC50;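 also: kinase activity of bead-bound ATR toward a GST-p53 N-terminal fragment substrate, 1 h at 37 °C, read by chemiluminescence, with inhibitor-free wells as control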
T1 construct: obtained from HeLa nuclear extract (CIL Biotech, Mons, Belgium) by immunoprecipitation with rabbit polyclonal antiserum raised to amino acids 400-480 of ATR; host or cells: HeLa nuclear extract

mTOR = mTOR (Homo sapiens, UniProt P42345); assay: Enzyme - mTOR Kinase Assay (Echo); format: biochemical; conditions: recombinant FLAG-tagged mTOR (1362-2549); AlphaScreen; ATP 20 μM;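 also: enzyme expressed in HEK293 cells, 2 h incubation at room temperature, read-out is phosphorylation of a biotinylated peptide substrate detected with an anti-phospho p70 S6 Kinase (T389) antibody, inhibition lowers signal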
mTOR, sequence (P42345 1362-2549): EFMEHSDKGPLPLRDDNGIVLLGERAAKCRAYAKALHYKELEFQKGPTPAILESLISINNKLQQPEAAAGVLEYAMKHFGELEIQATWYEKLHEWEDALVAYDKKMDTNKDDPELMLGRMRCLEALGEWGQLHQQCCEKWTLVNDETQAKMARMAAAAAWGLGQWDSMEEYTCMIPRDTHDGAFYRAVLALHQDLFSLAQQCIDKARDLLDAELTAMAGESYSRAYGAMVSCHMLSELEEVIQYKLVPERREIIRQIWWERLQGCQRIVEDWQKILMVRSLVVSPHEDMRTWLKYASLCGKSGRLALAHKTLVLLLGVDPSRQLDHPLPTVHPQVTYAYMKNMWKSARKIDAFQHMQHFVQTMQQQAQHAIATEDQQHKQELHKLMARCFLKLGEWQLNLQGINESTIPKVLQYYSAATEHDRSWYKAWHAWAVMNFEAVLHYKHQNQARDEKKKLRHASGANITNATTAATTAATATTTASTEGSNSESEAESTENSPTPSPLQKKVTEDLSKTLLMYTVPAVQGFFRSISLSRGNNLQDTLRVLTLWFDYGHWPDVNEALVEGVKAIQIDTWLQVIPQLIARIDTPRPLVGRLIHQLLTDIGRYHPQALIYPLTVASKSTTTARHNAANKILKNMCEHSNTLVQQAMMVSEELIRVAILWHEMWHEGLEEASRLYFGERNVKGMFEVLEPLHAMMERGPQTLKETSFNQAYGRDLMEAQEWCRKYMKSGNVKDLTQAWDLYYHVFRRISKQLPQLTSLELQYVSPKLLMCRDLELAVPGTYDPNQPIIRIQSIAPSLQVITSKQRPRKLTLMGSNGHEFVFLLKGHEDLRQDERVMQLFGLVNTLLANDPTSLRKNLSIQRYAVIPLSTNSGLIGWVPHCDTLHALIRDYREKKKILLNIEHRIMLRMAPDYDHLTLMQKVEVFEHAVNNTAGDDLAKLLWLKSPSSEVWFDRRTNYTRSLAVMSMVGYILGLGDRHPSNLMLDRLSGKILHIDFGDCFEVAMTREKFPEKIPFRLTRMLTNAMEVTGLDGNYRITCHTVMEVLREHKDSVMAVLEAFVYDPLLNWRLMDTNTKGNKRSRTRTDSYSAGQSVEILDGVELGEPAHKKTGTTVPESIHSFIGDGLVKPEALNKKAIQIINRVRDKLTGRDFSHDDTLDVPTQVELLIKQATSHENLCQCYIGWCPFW

T1 sequence (Q13535 whole entry, the tested form may be a part): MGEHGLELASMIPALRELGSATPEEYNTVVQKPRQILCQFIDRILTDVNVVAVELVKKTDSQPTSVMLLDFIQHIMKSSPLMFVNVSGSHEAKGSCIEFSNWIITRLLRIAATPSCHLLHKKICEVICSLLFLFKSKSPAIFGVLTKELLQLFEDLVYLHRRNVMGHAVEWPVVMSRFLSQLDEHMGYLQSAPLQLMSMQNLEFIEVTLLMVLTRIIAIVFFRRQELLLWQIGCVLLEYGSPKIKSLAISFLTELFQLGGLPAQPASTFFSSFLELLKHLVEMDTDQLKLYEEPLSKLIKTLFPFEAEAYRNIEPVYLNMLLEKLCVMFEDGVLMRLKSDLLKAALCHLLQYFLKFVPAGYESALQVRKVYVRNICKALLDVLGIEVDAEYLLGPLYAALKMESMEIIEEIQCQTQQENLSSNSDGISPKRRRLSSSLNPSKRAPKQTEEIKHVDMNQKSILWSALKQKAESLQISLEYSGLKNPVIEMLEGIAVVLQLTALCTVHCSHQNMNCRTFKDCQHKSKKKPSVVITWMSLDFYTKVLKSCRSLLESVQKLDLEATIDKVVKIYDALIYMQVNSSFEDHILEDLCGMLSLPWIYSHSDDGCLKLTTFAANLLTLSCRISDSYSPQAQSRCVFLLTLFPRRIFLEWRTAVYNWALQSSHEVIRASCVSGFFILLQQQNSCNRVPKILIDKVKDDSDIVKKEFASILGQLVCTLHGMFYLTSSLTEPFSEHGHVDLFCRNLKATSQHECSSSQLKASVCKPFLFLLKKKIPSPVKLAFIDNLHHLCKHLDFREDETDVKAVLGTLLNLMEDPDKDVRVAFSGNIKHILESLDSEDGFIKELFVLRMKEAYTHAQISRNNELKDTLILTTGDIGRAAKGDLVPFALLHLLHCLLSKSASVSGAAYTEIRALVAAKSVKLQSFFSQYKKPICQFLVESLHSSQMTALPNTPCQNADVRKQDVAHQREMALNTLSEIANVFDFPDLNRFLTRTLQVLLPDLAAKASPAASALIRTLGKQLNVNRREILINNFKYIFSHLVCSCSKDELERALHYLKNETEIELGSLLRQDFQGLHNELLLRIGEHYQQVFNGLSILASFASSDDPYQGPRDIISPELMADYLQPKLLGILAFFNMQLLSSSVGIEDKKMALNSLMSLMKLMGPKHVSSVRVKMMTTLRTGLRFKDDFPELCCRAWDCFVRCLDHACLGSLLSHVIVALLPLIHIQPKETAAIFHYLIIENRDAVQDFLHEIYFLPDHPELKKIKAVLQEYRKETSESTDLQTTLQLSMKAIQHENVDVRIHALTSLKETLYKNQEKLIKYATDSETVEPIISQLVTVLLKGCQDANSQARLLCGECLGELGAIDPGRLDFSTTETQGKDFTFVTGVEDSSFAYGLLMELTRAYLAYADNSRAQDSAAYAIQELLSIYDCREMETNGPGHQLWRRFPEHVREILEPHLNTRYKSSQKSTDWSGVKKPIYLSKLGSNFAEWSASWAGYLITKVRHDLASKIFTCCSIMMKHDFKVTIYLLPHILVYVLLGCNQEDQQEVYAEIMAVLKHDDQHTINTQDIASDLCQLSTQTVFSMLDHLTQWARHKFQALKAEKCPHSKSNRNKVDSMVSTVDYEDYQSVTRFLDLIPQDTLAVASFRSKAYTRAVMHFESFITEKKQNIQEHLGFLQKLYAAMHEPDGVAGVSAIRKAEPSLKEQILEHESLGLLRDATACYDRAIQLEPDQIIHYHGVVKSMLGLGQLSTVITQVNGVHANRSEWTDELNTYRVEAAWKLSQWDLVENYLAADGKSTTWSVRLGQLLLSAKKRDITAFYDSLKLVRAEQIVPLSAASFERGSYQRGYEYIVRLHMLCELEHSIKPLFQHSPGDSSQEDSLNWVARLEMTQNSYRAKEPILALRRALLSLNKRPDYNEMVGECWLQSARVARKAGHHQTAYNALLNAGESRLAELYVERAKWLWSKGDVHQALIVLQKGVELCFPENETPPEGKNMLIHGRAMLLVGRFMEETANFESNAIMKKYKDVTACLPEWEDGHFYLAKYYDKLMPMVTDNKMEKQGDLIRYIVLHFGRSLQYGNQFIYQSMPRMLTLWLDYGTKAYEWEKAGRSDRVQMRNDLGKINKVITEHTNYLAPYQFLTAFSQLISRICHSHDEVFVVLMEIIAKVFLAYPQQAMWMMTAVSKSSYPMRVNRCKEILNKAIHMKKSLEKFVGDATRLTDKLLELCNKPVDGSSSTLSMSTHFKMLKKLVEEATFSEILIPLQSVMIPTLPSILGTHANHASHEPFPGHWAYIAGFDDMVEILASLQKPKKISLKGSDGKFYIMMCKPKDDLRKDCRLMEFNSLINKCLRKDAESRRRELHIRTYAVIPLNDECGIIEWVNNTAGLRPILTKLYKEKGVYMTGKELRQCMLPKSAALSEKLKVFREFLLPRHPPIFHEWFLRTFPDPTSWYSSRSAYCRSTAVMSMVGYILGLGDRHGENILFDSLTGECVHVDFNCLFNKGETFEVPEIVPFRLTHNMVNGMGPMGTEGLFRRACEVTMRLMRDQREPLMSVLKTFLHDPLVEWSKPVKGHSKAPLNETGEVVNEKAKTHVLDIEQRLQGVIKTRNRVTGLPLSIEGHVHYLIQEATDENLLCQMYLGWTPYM
T1 sequence (Q8WXE1 whole entry partner, the tested form may be a part): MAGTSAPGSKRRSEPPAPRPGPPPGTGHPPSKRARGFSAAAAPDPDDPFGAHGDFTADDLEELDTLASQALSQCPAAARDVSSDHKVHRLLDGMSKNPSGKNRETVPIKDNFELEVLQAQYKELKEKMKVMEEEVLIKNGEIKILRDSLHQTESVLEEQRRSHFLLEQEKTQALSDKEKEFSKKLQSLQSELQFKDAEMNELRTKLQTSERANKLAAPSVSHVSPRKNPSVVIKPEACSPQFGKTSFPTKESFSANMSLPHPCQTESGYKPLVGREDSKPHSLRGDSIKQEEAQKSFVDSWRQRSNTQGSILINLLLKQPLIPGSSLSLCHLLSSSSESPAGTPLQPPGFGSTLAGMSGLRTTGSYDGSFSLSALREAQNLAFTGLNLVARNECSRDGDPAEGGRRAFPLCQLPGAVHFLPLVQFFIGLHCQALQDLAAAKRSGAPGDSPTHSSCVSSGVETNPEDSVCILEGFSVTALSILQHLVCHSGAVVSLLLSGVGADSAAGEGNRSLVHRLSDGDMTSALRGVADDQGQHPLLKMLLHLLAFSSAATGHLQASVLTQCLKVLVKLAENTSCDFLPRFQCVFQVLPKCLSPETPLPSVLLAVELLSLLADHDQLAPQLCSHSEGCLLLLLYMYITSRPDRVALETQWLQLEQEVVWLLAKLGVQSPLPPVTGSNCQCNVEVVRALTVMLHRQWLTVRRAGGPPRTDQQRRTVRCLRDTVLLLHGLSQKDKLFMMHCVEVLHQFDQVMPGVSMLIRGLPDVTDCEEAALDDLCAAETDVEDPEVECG

| SMILES | IC50 (ATR) | IC50 (mTOR) |
| --- | --- | --- |
| C[C@@H]1COCCN1c1cc(C2(S(C)(=O)=O)CCOCC2)nc(-c2cccc3[nH]ccc23)n1 [Example 3.08, 4-{4-[(3R)-3-Methylmorpholin-4-yl]-6-[4-(methylsulfonyl)tetrahydro-2H-pyran-4-yl]pyrimidin-2-yl}-1H-indole] | 2.32 nM | 225 nM |
| Cc1cc2c(-c3nc(N4CCOC[C@H]4C)cc(C4(S(C)(=O)=O)CCOCC4)n3)cccc2[nH]1 [Example 3.10, 2-Methyl-4-{4-[(3R)-3-methylmorpholin-4-yl]-6-[4-(methylsulfonyl)tetrahydro-2H-pyran-4-yl]pyrimidin-2-yl}-1H-indole] | 3.58 nM | 145 nM |
| COc1cc(-c2nc(N3CCOC[C@H]3C)cc(C3(S(C)(=O)=O)CCOCC3)n2)c2cc[nH]c2c1 [Example 3.11, 6-Methoxy-4-{4-[(3R)-3-methylmorpholin-4-yl]-6-[4-(methylsulfonyl)tetrahydro-2H-pyran-4-yl]pyrimidin-2-yl}-1H-indole] | 1.58 nM | 77.9 nM |
| C[C@@H]1COCCN1c1cc(C2(S(C)(=O)=O)CCOCC2)nc(-c2cc(C#N)cc3[nH]ccc23)n1 [Example 3.14, 4-{4-[(3R)-3-methylmorphohn-4-yl]-6-[4-(methylsulfonyl)tetrahydro-2H-pyran-4-yl]pyrimidin-2-yl}-1H-indole-6-carbonitrile] | 14.2 nM | 692 nM |
| C[C@@H]1COCCN1c1cc(C2(S(=O)(=O)C3CC3)CC2)nc(-c2cccc3[nH]ccc23)n1 [Example 3.17, 4-{4-[1-(Cyclopropylsulfonyl)cyclopropyl]-6-[(3R)-3-methylmorpholin-4-yl]pyrimidin-2-yl}-1H-indole] | 2.26 nM | 97.8 nM |
| C[C@@H]1COCCN1c1cc(C2(S(=O)(=O)C3CC3)CCOCC2)nc(-c2cccc3[nH]ccc23)n1 [Example 3.19, 4-{4-[4-(Cyclopropylsulfonyl)tetrahydro-2H-pyran-4-yl]-6-[(3R)-3-methylmorpholin-4-yl]pyrimidin-2-yl}-1H-indole] | 97.6 nM | 2820 nM |

Results, then the compound that gave them:

| IC50 (ATR) | IC50 (mTOR) | SMILES |
| --- | --- | --- |
| 1.58 nM | 451 nM | Cc1cc(-c2nc(N3CCOC[C@H]3C)cc(C3(S(C)(=O)=O)CCOCC3)n2)c2cc[nH]c2c1 [Example 3.09, 6-Methyl-4-{4-[(3R)-3-methylmorpholin-4-yl]-6-[4-(methylsulfonyl)tetrahydro-2H-pyran-4-yl]pyrimidin-2-yl}-1H-indole] |
| 2.5 nM | 420 nM | C[C@@H]1COCCN1c1cc(C2(S(C)(=O)=O)CCOCC2)nc(-c2cc(Cl)cc3[nH]ccc23)n1 [Example 3.12] |
| 1.53 nM | 250 nM | C[C@@H]1COCCN1c1cc(C2(S(C)(=O)=O)CCOCC2)nc(-c2cc(F)cc3[nH]ccc23)n1 [Example 3.13, 6-fluoro-4-{4-[(3R)-3-methylmorpholin-4-yl]-6-[4-(methylsulfonyl)tetrahydro-2H-pyran-4-yl]pyrimidin-2-yl}-1H-indole] |
| 2.55 nM | 980 nM | C[C@@H]1COCCN1c1cc(C2(S(C)(=O)=O)CCNCC2)nc(-c2cccc3[nH]ccc23)n1 [Example 3.15, 4-{4-[(3R)-3-Methylmorpholin-4-yl]-6-[4-(methylsulfonyl)piperidin-4-yl]pyrimidin-2-yl}-1H-indole] |
| 1.99 nM | 85.8 nM | C[C@@H]1COCCN1c1cc(C2(S(C)(=O)=O)CCC2)nc(-c2cccc3[nH]ccc23)n1 [Example 3.16, 4-{4-[(3R)-3-Methylmorpholin-4-yl]-6-[1-(methylsulfonyl)cyclobutyl]pyrimidin-2-yl}-1H-indole] |
| 7.62 nM | 383 nM | C[C@@H]1COCCN1c1cc(C2(S(=O)(=O)C3CC3)CCNCC2)nc(-c2cccc3[nH]ccc23)n1 [Example 3.18, 4-{4-[4-(Cyclopropylsulfonyl)piperidin-4-yl]-6-[(3R)-3-methylmorpholin-4-yl]pyrimidin-2-yl}-1H-indole] |
